In assay [1] the target is T1, bovine SOD1 (Bos taurus, UniProt P00442). Briefly: CuZn SOD (SOD1) activity assay, xanthine/xanthine oxidase with WST-1. Conditions: for inhibition of SOD1 activity in vitro: in vitro enzyme assay, WST-1. The assay is classed as biochemical. The method, then:
SOD1 was assayed with a commercially available kit (Dojindo) based on the xanthine/xanthine oxidase superoxide generation reaction coupled to a water soluble tetrazolium salt, WST-1.
Standard curves (0-13 nM) of bovine SOD were generated using the SOD1 assay described above in the presence of increasing concentrations of ATN-224. Appropriate blanks comprising ATN-224 in the absence of SOD1 enzyme were also generated. The inhibition of SOD1 activity was calculated from these standard curves.
On the technique in general: Formazan colour is commonly taken as a measure of viable cells.

Another assay addresses T2, extracellular SOD (Homo sapiens, UniProt P08294).
T2 construct: DS administered to alcoholics reduced by 20% extracellular SOD activity
T2 sequence (P08294 19-240): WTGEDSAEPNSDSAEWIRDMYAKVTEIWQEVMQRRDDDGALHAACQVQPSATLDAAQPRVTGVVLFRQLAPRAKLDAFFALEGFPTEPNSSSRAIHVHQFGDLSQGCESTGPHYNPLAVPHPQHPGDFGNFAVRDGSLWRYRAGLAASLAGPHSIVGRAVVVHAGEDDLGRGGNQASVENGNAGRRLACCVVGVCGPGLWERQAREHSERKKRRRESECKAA
Conditions: alcoholics, compared to untreated alcoholics and healthy control; cited from earlier work.

The next assay has as its system angiogenesis. Briefly: Matrigel plug assay (hemoglobin). In kind it is in vivo. Conditions: mice. The method, then: This assay is performed essentially as described by Passaniti et al. (Lab Invest. 67:519-528 (1992). Ice-cold Matrigel® (e.g., 500 μL) (Collaborative Biomedical Products, Inc., Bedford, Mass.) is mixed with heparin (e.g., 50 μg/ml), FGF-2 (e.g., 400 ng/ml) and the compound to be tested. In some assays, bFGF may be substituted with tumor cells as the angiogenic stimulus. The Matrigel® mixture is injected subcutaneously into 4-8 week-old athymic nude mice at sites near the abdominal midline, preferably 3 injections per mouse. The injected Matrigel® forms a palpable solid gel. Injection sites are chosen such that each animal receives a positive control plug (such as FGF-2+heparin), a negative control plug (e.g., buffer+heparin) and a plug that includes the compound being tested for its effect on angiogenesis, e.g., (FGF-2+heparin+compound). […] Hemoglobin (Hb) levels are determined using Drabkin's solution (e.g., obtained from Sigma) according to the manufacturers' instructions. […] The amount of fluorescence in the dispersed plug, determined fluorimetrically, also serves as a measure of angiogenesis in the plug. […]
Matrigel® ([…]) on ice was mixed with heparin (50 mg/ml), FGF-2 (800 ng/ml), VEGF (300 ng/ml) and the test compound. […] Hemoglobin levels in the plugs were determined using Drabkin's solution according to the manufacturers' instructions (Sigma Chemicals). […]

The test system of the next assay is HUVEC. Briefly: HUVEC proliferation assay (acid phosphatase method). In kind it is cell-based, human. The method, then:
Alternatively, cells at a density of 6000/well are plated in wells of 48 well microplates on 0.1% gelatin in 200 μl M200/2% FCS, and incubated at 37° C. in a humid atmosphere of 5% CO2 for 16 hrs. Compounds to be tested are diluted in M200 supplemented with 2% FCS and 1 ng/ml FGF-2 and added to the cells. Positive control contain no compound, and negative controls contain no compound or FGF-2. Cells are incubated at 37° C./5% CO2 for 72 hours. Cells are enumerated indirectly using the acid phosphatase method (Connolly, D T et al., 1986, Anal. Biochem 152:136-140). After removal of growth medium, the cells are lysed in buffer containing Triton X-100. The chromogenic substrate for acid phosphatase, p-nitrophenyl phosphate is added at a concentration of 100 mM. After incubation for 75 min. at 37° C., the reaction is stopped with 1N NaOH, and color is measured using a multiwell microplate reader.
Cells at a density of 6000/well were plated in wells of 48 well microplates on 0.1% gelatin in 200 μl M200/2% FCS, and were incubated at 37° C. in a humid atmosphere of 5% CO2 for 16 hrs. Compounds to be tested were diluted in M200 supplemented with 2% FCS and 1 ng/ml FGF-2 and added to the cells. Positive control contained no compound, and negative controls contained no compound or FGF-2. Cells were incubated at 37° C./5% CO2 for 72 hours. Cells were enumerated indirectly using the acid phosphatase method. After removal of growth medium, the cells were lysed in buffer containing the detergent Triton X-100. The chromogenic substrate for acid phosphatase, p-nitrophenyl phosphate was added at a concentration of 100 mM. After incubation for 75 min. at 37° C., the reaction was stopped with 1N NaOH and color was measured using a multiwell microplate reader.
HUVEC proliferation assays were performed as described. Increasing concentrations of ATN-224 was added to cultures in the presence or absence of 100 μM MnTBAP (AG Scientific, San Diego). Cell number was estimated using the acid phosphatase method described above.

A further assay addresses T3, SOD1 (Homo sapiens, UniProt P00441).
T3 construct: from tissue
Briefly: SOD1 activity in treated tumors. In kind it is in vivo. Conditions: SOD1 protein unchanged (Western blot).

The subject of assay [2] is superoxide anions in HUVECs. Conditions: 72 hrs, ATN-224 at IC50, 5 μM DHE, vs control HUVECs. The method, then: HUVECs were plated in 6 well cluster plates on 0.1% gelatin at 6000 cells/well in M200/2% FCS. Cells were incubated at 37° C./5% CO2 for 16 hrs. Cells were rinsed, and ATN-224 was added in medium supplemented with 1 ng/ml FGF-2. Cells were incubated at 37 ° for 72 hours, rinsed in PBS, and DHE (Molecular probes) was added (5 μM) to the cells. Cells were then visualized microscopically using a fluorescent lamp and a red filter.

Assay [3] addresses T1, bovine SOD1. Briefly: Removal of copper from SOD1 (gel filtration, ICP-MS). The assay is classed as biochemical. On the procedure:
[…] The protein was then purified by gel filtration chromatography. The sample was then analyzed for molybdenum content and copper content by ICP-MS.
(In general: Size exclusion chromatography separates by hydrodynamic size, large species first.)

The subject of assay [4] is intracellular copper levels.
Another assay deals with T4, intracellular CuZnSOD (Homo sapiens, UniProt P00441).
T4 construct: Lysates were assayed for SOD1 activity as described above; endogenous in cells; host or cells: HUVEC
Briefly: Intracellular CuZnSOD activity in HUVECs. The assay is classed as cell-based. The method, then: HUVECs were plated on 0.1% gelatin at 2-4×10^6 cells in T-25 flasks in M200 medium with 2% FCS. Cells were incubated at 37° C./5% CO2 for 16 hrs. Cells were rinsed with M200/2% FCS and incubated for a further 2 hrs in medium to which varying concentration of ATN-224 and FGF-2 (at 1 ng/ml) were added. At various intervals, medium was removed and the cells lysed in lysis buffer. Lysates were assayed for SOD1 activity as described above. Lysates were also analyzed by Western blot using a SOD1-specific polyclonal antibody (Biodesign, ME). These experiments were repeated in increasing concentrations of serum.

For assay [5] the following is noted: Zn^2+, Fe^2+, Ca^2+, Mn^2+, Mg^2+; standard binding assays.

SMILES strings stand for the structures.

T4 sequence (P00441 whole entry): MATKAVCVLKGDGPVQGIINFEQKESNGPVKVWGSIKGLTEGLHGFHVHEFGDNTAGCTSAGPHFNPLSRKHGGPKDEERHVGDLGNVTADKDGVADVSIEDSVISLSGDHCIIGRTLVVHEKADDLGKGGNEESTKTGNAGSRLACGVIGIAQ
T1 sequence (P00442 whole entry): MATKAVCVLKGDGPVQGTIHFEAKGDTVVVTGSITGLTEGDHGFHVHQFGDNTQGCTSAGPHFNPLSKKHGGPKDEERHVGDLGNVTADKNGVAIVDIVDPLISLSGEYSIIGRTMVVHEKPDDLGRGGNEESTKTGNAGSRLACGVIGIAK
T3 sequence (P00441 whole entry, species assumed): as the sequence (P00441 whole entry) above

As to `C[N+](C)(C)CCO.C[N+](C)(C)CCO.[S]=[W](=[S])([S-])[S-]` [ATN-427, choline tetrathiotungstate], the “inhibition of SOD1 activity in vitro” value against bovine SOD1 [1] is recorded as “inhibited SOD1 activity”; on bovine SOD1 [1] (listed as choline tetrathiotungstate), “effective inhibitor of SOD1 activity”.
As to `c1csc(CSc2nc3ccccc3s2)c1` [ATN-714], the “inhibition of SOD1 activity in vitro” value at bovine SOD1 [1] was “inhibited SOD1 activity”.
With `CCN(CC)C(=S)SSC(=S)N(CC)CC` [DS, Tetraethylthiuram disulfide], the “reduction of extracellular SOD activity” value at extracellular SOD is reported as 20%.
With `O=C(O)c1ccc(/C2=C3\C=CC(=N3)/C(c3ccc(C(=O)O)cc3)=c3/cc/c4[n]3[Mn]([Cl])[n]3c2ccc3/C(c2ccc(C(=O)O)cc2)=C2/C=CC(=N2)\C=4c2ccc(C(=O)O)cc2)cc1` [MnTBAP, reference compound], the “reversal of ATN-224 inhibition of angiogenesis” value in the assay on angiogenesis (MnTBAP with ATN-224 in plug) is listed as “abrogated most of this inhibition”. Moreover, in the assay with HUVEC (100 μM MnTBAP with ATN-224), the “reversal of ATN-224 inhibition of cell proliferation” value is listed as “abrogate most of the inhibition”.
In the case of `C[N+](C)(C)CCO.C[N+](C)(C)CCO.[SH-].[SH-].[S]=[Mo]=[S]` [ATN-224, choline tetrathiomolybdate], the “inhibition of SOD1 activity in vitro” value against bovine SOD1 [1] was “inhibited this reaction”. For the same compound, the “inhibition of generation of superoxide ions in the assay” value on bovine SOD1 [1] (xanthine/xanthine oxidase) is “did not act by inhibiting generation of superoxide ions”. Besides, the “SOD1 enzymatic activity in treated tumors” value at SOD1 is reported as “reduced SOD1 enzymatic activity”. Further, the “DHE fluorescence (superoxide)” value in [2] is “strong fluorescence”. In the assay on IL-8 expression, the IL-8 expression entry was “down-regulates IL-8 expression”. For the same compound, at bovine SOD1 [3], the “binding to CuZnSOD (Mo content of purified protein)” value is “did not bind to CuZnSOD” and the “copper content of CuZnSOD” value is “appreciable loss of copper”. Besides, the “angiogenesis in Matrigel plugs” value in the assay with angiogenesis (compound in plug, 5 days) is “inhibited”. Further, the IC50 in the assay on HUVEC (FGF-2 driven, 72 hours, read-out: IC50, inhibition of HUVEC proliferation) lay in the range of 1000 to 2000 nM. Also, the “inhibition of FGF-2 driven proliferation with copper added” value with HUVEC (equimolar concentrations of copper added) is given as “completely abrogated”. In addition, the intracellular copper levels result in [4] was “does not increase intracellular copper levels”. Besides, the “level of CuZnSOD protein (Western blot)” value at intracellular CuZnSOD (HUVEC lysates) was “did not affect the level of CuZnSOD protein”. The “inhibition of intracellular CuZnSOD” value on intracellular CuZnSOD (HUVECs, 3 concentrations, up to 24 hours) is “dose and time dependent inhibition”. Besides, the “effect of serum on intracellular CuZnSOD inhibition” value at intracellular CuZnSOD (increasing concentrations of serum) is reported as “unaffected by the presence of serum”. The “inhibition of aldehyde dehydrogenase” value in the assay on aldehyde dehydrogenase is “does not inhibit”. Besides, the “binding to other metal cations” value in assay [5] is listed as “does not bind detectably”.
As to `O=C1CC(c2cccs2)Sc2ccccc2N1` (stereo not drawn) [ATN 722], the “inhibition of SOD1 activity in vitro” value on bovine SOD1 [1] is “inhibited SOD1 activity”.
Still for that read-out and setting: the result for `CN(C)C1=NCC(CSC(=N)N)S1` (stereo not drawn) [ATN-719] reads “inhibited SOD1 activity”.

Source of the values: patent US20080031817A1, “Inhibition Of Superoxide Dismutase By Tetrathiomolybdate: Identification Of New Anti-Angiogenic And Antitumor Agents” (priority 2004, published 2008).
